Measured values as given in PubChem BioAssay (NCI).
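Assay format: 96-well plates, 48-hour exposure. Here, GI50 denotes the concentration required for 50% inhibition of growth. TGI is the concentration that stops growth completely.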

How the values were obtained:
Experiment in all cases: DTP human tumour cell line panel, 48 h
[1] = system: NCI-H226 lung
[2] = system: SK-OV-3 ovarian
[3] = system: DU-145 prostate
[4] = system: TK-10 renal
[5] = system: U251 CNS
[6] = system: SF-268 CNS
[7] = system: OVCAR-4 ovarian
[8] = system: UO-31 renal
[9] = system: SF-295 CNS
[10] = system: SNB-75 CNS
[11] = system: RXF 393 renal
[12] = system: CAKI-1 renal
[13] = system: OVCAR-5 ovarian
[14] = system: NCI-H23 lung
[15] = system: HT29 colon
[16] = system: SW-620 colon
[17] = system: MALME-3M melanoma
[18] = system: HCC-2998 colon
[19] = system: NCI-H522 lung
[20] = system: KM12 colon
[21] = system: T-47D breast
[22] = system: EKVX NSCLC
[23] = system: OVCAR-8 ovarian
[24] = system: RPMI-8226 leukemia
[25] = system: COLO 205 colon
[26] = system: NCI/ADR-RES ovarian
[27] = system: HOP-92 NSCLC
[28] = system: CCRF-CEM leukemia
[29] = system: PC-3 prostate

## COc1ccc(-c2nn(-c3ccc(NC(=O)c4ccc(Cl)c(Cl)c4)cc3)cc2-c2ccncc2)cc1Cl
[1]
  GI50: > 28.2 µM
  TGI: > 50 µM
[2]
  GI50: 4.29 µM
  TGI: > 50 µM
[3]
  GI50: > 50 µM
  TGI: > 50 µM
[4]
  GI50: > 11.1 µM
  TGI: > 50 µM
[5]
  GI50: 1.3 µM
  TGI: > 50 µM
[6]
  GI50: 4.25 µM
  TGI: > 50 µM
[7]
  GI50: > 14.1 µM
  TGI: > 50 µM
[8]
  GI50: 2.07 µM
  TGI: > 50 µM
[9]
  GI50: 0.979 µM
  TGI: 2.67 µM
[10]
  GI50: 1.26 µM
  TGI: > 50 µM
[11]
  GI50: 0.804 µM
  TGI: 1.75 µM
[12]
  GI50: 1.33 µM
  TGI: 5.26 µM
[13]
  GI50: 3.24 µM
  TGI: > 50 µM
[14]
  GI50: > 12.7 µM
  TGI: > 50 µM
[15]
  GI50: 1.21 µM
  TGI: 3.22 µM
[16]
  GI50: 2.67 µM
  TGI: > 50 µM
[17]
  GI50: 5.88 µM
  TGI: > 50 µM
[18]
  GI50: 1.85 µM
  TGI: > 50 µM
[19]
  TGI: > 46.3 µM
[20]
  GI50: 1.59 µM
  TGI: > 50 µM
[21]
  GI50: > 50 µM
  TGI: > 50 µM
[22]
  GI50: 3.25 µM
  TGI: > 50 µM
[23]
  GI50: > 25.8 µM
  TGI: > 50 µM
[24]
  GI50: 0.831 µM
  TGI: > 11.6 µM
[25]
  GI50: 1.45 µM
  TGI: 3.8 µM
[26]
  GI50: 4.12 µM
  TGI: > 50 µM
[27]
  GI50: 7.65 µM
  TGI: > 50 µM
[28]
  GI50: 3.63 µM
  TGI: > 50 µM
[29]
  GI50: 2.42 µM
  TGI: > 50 µM
